This test relates to P388 leukemia ip, CD2F1 mice, survival T/C. The experiment in a line: NCI In Vivo Anticancer Drug Screen. Data for tumor model P388 Leukemia (intraperitoneal) in CD2F1 (CDF1) mice. The note with it: endpoint: median survival time, higher = longer survival. Put shortly: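 Mice carrying the transplanted tumor received test compound or vehicle. Survival was recorded in each group, and the value is the treated-group measurement divided by that of the vehicle-treated control group.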

Where [1] appears, read: dose: 12.5 mg/kg/injection, schedule: Q01DX009 (ip), vehicle: saline.
The mark [2] stands for this setting: dose: 25.0 mg/kg/injection, schedule: Q01DX009 (ip), vehicle: saline with Tween-80.
Setting [3] is: dose: 25.0 mg/kg/injection, schedule: Q01DX009 (ip), vehicle: saline.
The mark [4] stands for this setting: dose: 50.0 mg/kg/injection, schedule: Q01DX009 (ip), vehicle: saline with Tween-80.
The mark [5] stands for this setting: dose: 50.0 mg/kg/injection, schedule: Q01DX009 (ip), vehicle: saline.
The mark [6] stands for this setting: dose: 100.0 mg/kg/injection, schedule: Q01DX009 (ip), vehicle: saline with Tween-80.
The mark [7] stands for this setting: dose: 100.0 mg/kg/injection, schedule: Q01DX009 (ip), vehicle: saline.
The mark [8] stands for this setting: dose: 50.0 mg/kg/injection, schedule: Q01DX005 (ip), vehicle: saline.
[9] abbreviates: dose: 100.0 mg/kg/injection, schedule: Q01DX005 (ip), vehicle: saline.
Setting [10] is: dose: 200.0 mg/kg/injection, schedule: Q01DX005 (ip), vehicle: saline.
Setting [11] is: dose: 200.0 mg/kg/injection, schedule: Q01DX009 (ip), vehicle: saline with Tween-80.
[12] abbreviates: dose: 50.0 mg/kg/injection, schedule: Q01DX009 (ip), vehicle: Klucel (hydroxypropylcellulose) (HPC).
Where [13] appears, read: dose: 200.0 mg/kg/injection, schedule: Q01DX009 (ip), vehicle: Klucel (hydroxypropylcellulose) (HPC).

Where “and” joins values, the source holds several entries; their conditions need not be identical. Identical values can stand only once. Inconclusive results and toxic doses are left out.

For `O=C(O)CN(CCO)CCN(CC(=O)O)CC(=O)O`, the T/C reads like this: under setting [1], 100 % of control; under setting [2], 100 % of control; under setting [3], 104 % of control; under setting [4], 95 % of control; under setting [5], 95 % of control; under setting [6], 100 % of control. Besides, under setting [7], the T/C is 98 % of control.

In the case of `NNC(=O)OC12CC3CC(CC(C3)C1)C2`, the T/C runs as follows: under setting [2], 110 % of control; under setting [4], 110 % of control.

Take `CCOC(=N)c1cn(C2OC(CO)C(O)C2O)c2ncnc(N)c12` (centres undefined): the T/C runs as follows: (dose: 0.2 mg/kg/injection, schedule: Q01DX009 (ip), vehicle: saline) 161 % of control; (dose: 0.25 mg/kg/injection, schedule: Q01DX009 (ip), vehicle: saline) 150 % of control; (dose: 0.3 mg/kg/injection, schedule: Q01DX009 (ip), vehicle: saline) 157 % of control; (dose: 0.5 mg/kg/injection, schedule: Q01DX009 (ip), vehicle: saline) 159 % of control; (dose: 1.0 mg/kg/injection, schedule: Q01DX009 (ip), vehicle: saline) 118 % of control; (dose: 2.0 mg/kg/injection, schedule: Q01DX009 (ip), vehicle: saline) 90 % of control.

Regarding `Oc1ccc2c(ccc3[nH]cnc32)c1`, the T/C was 98 % of control under setting [8], 101 % of control under setting [9] and 111 % of control under setting [10].

`CCOC(=O)CC1(O)C=C(C)C(=O)C(C)=C1`: the T/C was 100 % of control (dose: 3.13 mg/kg/injection, schedule: Q01DX009 (ip), vehicle: distilled water + Tween-80); 109 % of control (dose: 6.25 mg/kg/injection, schedule: Q01DX009 (ip), vehicle: distilled water + Tween-80); 103 % of control (dose: 12.5 mg/kg/injection, schedule: Q01DX009 (ip), vehicle: distilled water + Tween-80); 98 % of control (dose: 25.0 mg/kg/injection, schedule: Q01DX009 (ip), vehicle: distilled water + Tween-80); 107 % of control (dose: 50.0 mg/kg/injection, schedule: Q01DX009 (ip), vehicle: distilled water + Tween-80); 99 % of control (dose: 100.0 mg/kg/injection, schedule: Q01DX009 (ip), vehicle: distilled water + Tween-80). Further, the T/C was 112 % of control (dose: 200.0 mg/kg/injection, schedule: Q01DX009 (ip), vehicle: distilled water + Tween-80) and 108 % of control (dose: 400.0 mg/kg/injection, schedule: Q01DX009 (ip), vehicle: distilled water + Tween-80).

Turning to `O=C1C2=Cc3ccccc3CN2Cc2ccccc21`, the T/C by setting is: (dose: 18.75 mg/kg/injection, schedule: Q01DX009 (ip), vehicle: saline with Tween-80) 111 % of control; (dose: 37.5 mg/kg/injection, schedule: Q01DX009 (ip), vehicle: saline with Tween-80) 90 % of control.

For `CC(C)C1=C(O)C2=C(C(=O)C1=O)C1(C)CCCC(C)(C)C1CC2O` (centres undefined), the T/C under setting [2] was 100 % of control, the T/C under setting [4] was 104 % of control and the T/C under setting [11] was 108 % of control.

As for `COc1ccc(C(c2cc(C(C)(C)C)c(O)c(C(C)(C)C)c2)N2CCCCC2)cc1` (centres undefined), the T/C (dose: 50.0 mg/kg/injection, schedule: Q01DX005 (ip), vehicle: saline with Tween-80) is 102 % of control; the T/C (dose: 100.0 mg/kg/injection, schedule: Q01DX005 (ip), vehicle: saline with Tween-80) was 109 % of control; the T/C (dose: 200.0 mg/kg/injection, schedule: Q01DX005 (ip), vehicle: saline with Tween-80) is 112 % of control.

For `CN1CCN(c2ccncc2S(=O)(=O)N2CCOCC2)CC1`, the T/C reads like this: under setting [5], 97 % of control; under setting [7], 95 % of control.

For the molecule `COC(=O)C1(C)OS(=O)(=O)c2ccccc21` (centres undefined), the T/C was 101 % of control under setting [4], 101 % of control under setting [6] and 104 % of control under setting [11].

Consider `CCCCCCC(/C=C/c1ccc(Cl)c(Cl)c1)=N\Nc1ccc(Cl)c(Cl)c1`, for which the T/C was 90 % of control under setting [2]; 88 % of control and 93 % of control under setting [4]; 94 % of control under setting [6]; 87 % of control under setting [11].

Consider `O=C(CCl)NNc1cccc(Cl)n1`, for which the T/C runs as follows: (dose: 50.0 mg/kg/injection, schedule: Q01DX001 (ip), vehicle: Klucel (hydroxypropylcellulose) (HPC)) 98 % of control; (dose: 100.0 mg/kg/injection, schedule: Q01DX001 (ip), vehicle: Klucel (hydroxypropylcellulose) (HPC)) 98 % of control; (dose: 200.0 mg/kg/injection, schedule: Q01DX001 (ip), vehicle: Klucel (hydroxypropylcellulose) (HPC)) 93 % of control.

For `O=NN(c1ccc(Br)cc1)c1ccccn1`, the T/C reads like this: (dose: 25.0 mg/kg/injection, schedule: Q01DX009 (ip), vehicle: other) 102 % of control; (dose: 50.0 mg/kg/injection, schedule: Q01DX009 (ip), vehicle: other) 109 % of control; under setting [4], 100 % of control; (dose: 100.0 mg/kg/injection, schedule: Q01DX009 (ip), vehicle: other) 109 % of control; under setting [6], 100 % of control; (dose: 200.0 mg/kg/injection, schedule: Q01DX009 (ip), vehicle: other) 114 % of control. The T/C under setting [11] was 97 % of control and the T/C (dose: 400.0 mg/kg/injection, schedule: Q01DX009 (ip), vehicle: other) was 112 % of control.

Take `Nc1cc2c(cc1O)C1C(C3C2C2(Cl)C(Cl)C(Cl)C3(Cl)C2(Cl)Cl)C2(Cl)C(Cl)C(Cl)C1(Cl)C2(Cl)Cl` (centres undefined): the T/C under setting [12] is 100 % of control; the T/C (dose: 100.0 mg/kg/injection, schedule: Q01DX009 (ip), vehicle: Klucel (hydroxypropylcellulose) (HPC)) is 100 % of control; the T/C under setting [13] is 96 % of control.

Regarding `COC(=O)Nc1cn2cc(C(=O)c3cccs3)ccc2n1`, the T/C is 113 % of control under setting [12] and 151 % of control under setting [13].

Consider `CN=C/C(C(C)=O)=C(\C)O`, for which the T/C under setting [1] is 103 % of control; the T/C under setting [3] was 105 % of control; the T/C under setting [5] is 101 % of control and 106 % of control; the T/C under setting [7] is 112 % of control and 91 % of control.

`Cn1c(Cl)c(/C=N\Nc2ccc([N+](=O)[O-])cc2[N+](=O)[O-])c2ccccc21`: the T/C was 92 % of control (dose: 100.0 mg/kg/injection, schedule: Q01DX001 (ip), vehicle: saline with Tween-80); 93 % of control (dose: 200.0 mg/kg/injection, schedule: Q01DX001 (ip), vehicle: saline with Tween-80); 91 % of control (dose: 400.0 mg/kg/injection, schedule: Q01DX001 (ip), vehicle: saline with Tween-80).

On to `CN1C(C)(C)CC(C)(O)CC1(C)C`, for which the T/C under setting [8] is 91 % of control, the T/C under setting [9] is 94 % of control and the T/C under setting [10] is 106 % of control.

`C=C(C)[C@@H]1CCc2c(O)c(O)c(=O)cc(C)c2C1`: the T/C is 108 % of control (dose: 1.75 mg/kg/injection, schedule: Q01DX009 (ip), vehicle: saline); 112 % of control and 113 % of control (dose: 3.5 mg/kg/injection, schedule: Q01DX009 (ip), vehicle: saline); 101 % of control and 121 % of control (dose: 7.0 mg/kg/injection, schedule: Q01DX009 (ip), vehicle: saline); 110 % of control (dose: 14.0 mg/kg/injection, schedule: Q01DX009 (ip), vehicle: saline); 121 % of control (dose: 28.0 mg/kg/injection, schedule: Q01DX009 (ip), vehicle: saline); 119 % of control (dose: 56.0 mg/kg/injection, schedule: Q01DX009 (ip), vehicle: saline).

For `CC(C)(C)N=C(Cc1ccccc1)N1CCOCC1`, the T/C reads like this: under setting [4], 119 % of control; under setting [6], 96 % of control; under setting [11], 90 % of control.

For `CCOC(=O)C1=NN(c2ccccc2)C(C(=O)OC)[C@@H]1C(=O)OC` (some centres undefined), the T/C reads like this: (dose: 60.0 mg/kg/injection, schedule: Q01DX005 (ip), vehicle: saline with Tween-80) 99 % of control; (dose: 120.0 mg/kg/injection, schedule: Q01DX005 (ip), vehicle: saline with Tween-80) 98 % of control; (dose: 240.0 mg/kg/injection, schedule: Q01DX005 (ip), vehicle: saline with Tween-80) 96 % of control.

With `c1ccc(C2NCCS2)cc1` (centres undefined), the T/C is 100 % of control (dose: 50.0 mg/kg/injection, schedule: Q01DX005 (ip), vehicle: Klucel (hydroxypropylcellulose) (HPC)); 104 % of control (dose: 100.0 mg/kg/injection, schedule: Q01DX005 (ip), vehicle: Klucel (hydroxypropylcellulose) (HPC)); 104 % of control (dose: 200.0 mg/kg/injection, schedule: Q01DX005 (ip), vehicle: Klucel (hydroxypropylcellulose) (HPC)).

Source of the values: PubChem BioAssay AID330 (DTP/NCI, 2004).
